Measurements from paper PMC4860574, “Bafetinib (INNO-406) reverses multidrug resistance by inhibiting the efflux function of ABCB1 and ABCG2 transporters” (Scientific Reports, 2016).

Key:
ABCB1 = target: T1, ABCB1 (Homo sapiens, UniProt P08183); experiment: stimulation of vanadate-sensitive ATPase activity in ABCB1 membranes; format: biochemical; conditions: read-out: concentration required to obtain 50% of maximal stimulation
T1 construct: full length, wild type; cell assays in SW620/Ad300 and HEK/ABCB1

ABCG2 = target: T2, ABCG2 (Homo sapiens, UniProt Q9UNQ0); experiment: inhibition of vanadate-sensitive ATPase activity in ABCG2 membranes; format: biochemical; conditions: read-out: concentration required to obtain 50% of maximal inhibition
T2 construct: cell assays in NCI-H460/MX20 and HEK/ABCG2-R482
T2 sequence (Q9UNQ0 1-655): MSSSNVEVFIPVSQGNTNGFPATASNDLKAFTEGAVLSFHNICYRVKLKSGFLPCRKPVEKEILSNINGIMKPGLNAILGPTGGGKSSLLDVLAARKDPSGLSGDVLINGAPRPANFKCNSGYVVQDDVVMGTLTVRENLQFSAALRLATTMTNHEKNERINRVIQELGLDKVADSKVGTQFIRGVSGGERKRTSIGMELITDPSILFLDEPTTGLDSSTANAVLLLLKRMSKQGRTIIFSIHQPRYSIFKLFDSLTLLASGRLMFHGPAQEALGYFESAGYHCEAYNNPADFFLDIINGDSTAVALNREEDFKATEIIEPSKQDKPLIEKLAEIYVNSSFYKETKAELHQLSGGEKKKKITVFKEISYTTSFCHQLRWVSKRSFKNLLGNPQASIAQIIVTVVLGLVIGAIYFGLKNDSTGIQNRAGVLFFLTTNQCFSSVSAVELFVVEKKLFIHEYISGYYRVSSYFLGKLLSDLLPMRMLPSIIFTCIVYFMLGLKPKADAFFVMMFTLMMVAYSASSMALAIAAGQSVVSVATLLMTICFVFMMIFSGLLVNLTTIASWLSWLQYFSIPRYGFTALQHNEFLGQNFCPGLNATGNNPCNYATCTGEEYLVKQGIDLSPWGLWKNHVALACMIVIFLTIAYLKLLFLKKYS
Description: inhibition of vanadate-sensitive ATPase activity in ABCG2 membranes on ABCG2 | bafetinib inhibited the ATPase activity of ABCG2 in a concentration-dependent manner

T1 sequence (P08183 whole entry): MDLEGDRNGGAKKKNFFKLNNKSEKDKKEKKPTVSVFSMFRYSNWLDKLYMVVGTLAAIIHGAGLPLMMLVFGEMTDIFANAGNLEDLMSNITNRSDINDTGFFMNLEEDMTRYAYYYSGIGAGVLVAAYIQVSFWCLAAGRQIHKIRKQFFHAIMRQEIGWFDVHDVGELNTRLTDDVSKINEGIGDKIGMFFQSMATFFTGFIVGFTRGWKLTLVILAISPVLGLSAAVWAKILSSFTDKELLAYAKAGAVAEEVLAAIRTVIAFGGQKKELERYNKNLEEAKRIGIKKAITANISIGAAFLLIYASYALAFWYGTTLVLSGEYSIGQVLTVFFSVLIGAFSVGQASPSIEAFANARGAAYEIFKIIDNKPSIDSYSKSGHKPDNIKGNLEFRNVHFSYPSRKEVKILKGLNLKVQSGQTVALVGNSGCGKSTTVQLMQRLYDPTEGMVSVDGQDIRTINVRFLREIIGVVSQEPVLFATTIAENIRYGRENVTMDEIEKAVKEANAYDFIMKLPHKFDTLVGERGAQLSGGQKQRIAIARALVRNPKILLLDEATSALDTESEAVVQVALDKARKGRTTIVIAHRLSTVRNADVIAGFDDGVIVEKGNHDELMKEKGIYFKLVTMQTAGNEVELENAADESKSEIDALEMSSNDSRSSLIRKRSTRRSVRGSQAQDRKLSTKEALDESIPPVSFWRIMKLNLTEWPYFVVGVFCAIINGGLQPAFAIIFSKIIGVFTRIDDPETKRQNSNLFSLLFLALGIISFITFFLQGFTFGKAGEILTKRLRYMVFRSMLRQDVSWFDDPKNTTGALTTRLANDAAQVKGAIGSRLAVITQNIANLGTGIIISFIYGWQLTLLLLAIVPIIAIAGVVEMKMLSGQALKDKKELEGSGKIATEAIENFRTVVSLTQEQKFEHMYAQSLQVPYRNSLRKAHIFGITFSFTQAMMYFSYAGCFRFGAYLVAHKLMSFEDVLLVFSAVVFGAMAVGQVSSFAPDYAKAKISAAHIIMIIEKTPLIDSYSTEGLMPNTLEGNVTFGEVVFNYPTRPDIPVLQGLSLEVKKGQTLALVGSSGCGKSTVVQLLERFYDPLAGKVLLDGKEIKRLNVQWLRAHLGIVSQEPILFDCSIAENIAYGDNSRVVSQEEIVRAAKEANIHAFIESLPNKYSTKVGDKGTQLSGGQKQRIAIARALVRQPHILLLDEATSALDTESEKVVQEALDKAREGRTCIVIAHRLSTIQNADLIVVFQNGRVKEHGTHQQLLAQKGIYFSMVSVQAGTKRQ

## Cc1ccc(NC(=O)c2ccc(CN3CC[C@H](N(C)C)C3)c(C(F)(F)F)c2)cc1Nc1nccc(-c2cncnc2)n1 [bafetinib]
ABCB1
  EC50: 0.64 µM
ABCG2
  IC50: 2.97 µM
